{"source": "patent US9657073B2", "about": "“Inhibitors of Bcl-2” (Case Western Reserve University, priority 2010, dated 2017)", "key": {"[1]": {"test_system": "Jurkat cells", "assay": "Single cell digital imaging of intracellular Ca2+ (Fura-2)", "format": "cell-based, human", "conditions": "10 μM peptide, Jurkat, FIG. 5", "method": "(§1) WEHI7.2 cells were cultured in DMEM supplemented with 10% fetal calf serum, L-glutamine (2 mM), and nonessential amino acids (100 μM). Transfections of WEHI7.2 cells with expression vectors encoding wild type Bcl-2 and Bcl-2RS/GG were described previously. Jurkat cells and RS11846 cells were cultured in RPMI medium supplemented with 10% fetal bovine serum, L-glutamine (2 mM), and nonessential amino acids (100 μM). Cells were maintained in 5% carbon dioxide at high humidity.\n(§2) Methods of Ca^2+ imaging, described in detail previously, were employed here with only minor modification. Briefly, cells adhered to poly-L-lysine-coated coverslips (35-mm coverslip dishes, MatTek Corp., Ashland, Mass.) were loaded with 1 μM Fura-2 AM for 45 min at 25° C. in extracellular buffer (ECB) (130 mM NaCl, 5 mM KCl, 1.5 mM CaCl2, 1 mM MgCl2, 25 mM Hepes, pH 7.5, 1 mg/ml BSA, and 5 mM glucose). The buffer was replaced with fresh ECB and the incubation continued for […] at 25° C. to permit de-esterification. Culture dishes were mounted on the non-heated stage of an inverted microscope (Olympus CKX41) equipped with a 20× Fluor objective. Excitation light was alternated between 340 and 380 nm by a filter wheel (Sutter Instrument Co.), with 0.8 sec and 0.2 sec exposure times respectively, and emitted light was filtered at >510 nm and collected with an intensified charge-coupled device camera (Cooke 12 bit VGA). The video signal was digitized using InCyt Im2 software (Intracellular Imaging) and subsequently processed using Microsoft Excel. To determine Rmin cells were perfused with ECB deficient in Ca^2+ and supplemented with 4 mM EGTA and 10 μM ionomycin. Rmax was obtained by perfusing cells with ECB supplemented with 4 mM CaCl2 and 10 μM ionomycin. […] In most experiments peptides were fused with the cell penetrating peptide of HIV TAT to facilitate uptake by cells. In some experiments peptides, without linkage to TAT, were delivered into cells using Chariot reagent (Active Motif) as previously described. Xestospongin C (Enzo Life Sciences International) and U73122 (Sigma), both dissolved in DMSO, were added to cells 30 mM prior to Ca^2+ measurements."}, "[2]": {"test_system": "RS11846 cells", "assay": "Single cell digital imaging of intracellular Ca2+ (Fura-2)", "format": "cell-based, human", "conditions": "RS11846, FIG. 6", "method": "as §1, §2"}, "[3]": {"test_system": "triple IP3R knockout DT40 cells", "assay": "Single cell digital imaging of intracellular Ca2+ (Fura-2)", "format": "cell-based", "conditions": "5 μM peptide, TKO DT40, FIG. 8C", "method": "as §2, with “In some experiments peptides, without linkage to TAT, were delivered into cells using Chariot reagent (Active Motif) as previously described. Xestospongin C (Enzo Life Sciences International) and U73122 (Sigma), both dissolved in DMSO, were added to cells 30 mM prior to Ca^2+ measurements.” left out"}, "[4]": {"test_system": "wild type DT40 cells", "assay": "Single cell digital imaging of intracellular Ca2+ (Fura-2)", "format": "cell-based", "conditions": "5 μM peptide, DT40 expressing all three IP3R isoforms, FIG. 8B", "method": "as §2, with “In some experiments peptides, without linkage to TAT, were delivered into cells using Chariot reagent (Active Motif) as previously described. Xestospongin C (Enzo Life Sciences International) and U73122 (Sigma), both dissolved in DMSO, were added to cells 30 mM prior to Ca^2+ measurements.” left out"}, "[5]": {"test_system": "primary CLL cells", "assay": "Single cell digital imaging of intracellular Ca2+ (Fura-2)", "format": "cell-based, human", "conditions": "10 μM peptide", "description": "(§3) Lymphocytes were freshly separated from heparinized peripheral blood obtained from normal adult volunteers or adult patients with chronic lymphocytic leukemia (CLL) meeting standard diagnostic guidelines. Patients had either never received treatment or had received treatment over two years prior to obtaining samples. We conformed to all guidelines and regulations in accordance with Internal Review Board protocols ICC2902/11-02-28 (Case Western Reserve University Cancer Center/University Hospitals of Cleveland Ireland Cancer Center). Cells were separated by centrifugation through Ficoll-Hypaque and suspended in RPMI medium supplemented with 10% fetal bovine serum, L-glutamine (2 mM), and nonessential amino acids (100 μM) at a density of 2 million cells/ml. Normal CD19+ B cells were pooled from healthy individuals between 26 and 32 years of age, in accordance with IRB-approval (as above). Mononuclear cells were separated by Ficoll-Hypaque centrifugation, and further isolation of B and T cells was achieved by magnetic separation using CD19 microbeads (Miltenyi Biotec, Bergisch Gladbach, Germany).\nas §2"}, "[6]": {"test_system": "primary CLL cells", "assay": "Apoptosis and cell death assays (trypan blue, propidium iodide, Hoechst nuclear morphology, Annexin V)", "format": "cell-based, human", "conditions": "24 hr", "description": "as §3, with “Patients had either never received treatment or had received treatment over two years prior to obtaining samples.” left out\nApoptosis was quantified according to apoptotic nuclear morphology and by detection of phosphatidylserine exposure on the plasma membrane. […] Images were obtained using a chargecoupled device camera (Hamamatsu Photonics, Shizuoka, Japan) and digitally converted by Simple PCI software (Hamamatsu Photonics). Membrane translocation of phosphatidylserine was detected by Annexin V staining. Annexin V-positive cells were assessed by flow cytometry using an ARIA flow cytometer (Beckman Coulter, Pasadena, Calif., USA). All flow cytometry data were analyzed using FlowJo 8.8.4 for Macintosh (Treestar, Ashland, Oreg., USA). Dead cells were identified according to their inability to exclude trypan blue dye or propidium iodide. Trypan blue dye uptake into cells was detected by light microscopy using a 40× objective and quantified by counting up to 400 cells. Propidium iodide uptake was quantified by flow cytometry in association with the Annexin V measurement described above."}, "[7]": {"test_system": "multiple myeloma cells", "assay": "Killing of multiple myeloma cells", "format": "cell-based", "conditions": "FIG. 17"}}}
{"substance": "TAT-IDPDD/AA: TAT-IDP analogue; DD/AA substitution eliminates the predicted aspartyl protease cleavage site (RKKRRQRRRGGNVYTEIKCNSLLPLAAIVRV)", "values": [{"measurement": "amplitude and frequency of Ca2+ oscillations compared with TAT-IDP", "setting": "[1]", "result": "much higher"}, {"measurement": "activity (Ca2+ oscillations) compared to TAT-IDP", "setting": "[2]", "result": "increased activity"}, {"measurement": "induction of Ca2+ oscillations compared with wild type DT40", "setting": "[3]", "result": "significantly less"}, {"measurement": "induction of Ca2+ oscillations", "setting": "[4]", "result": "induced Ca^2+ oscillations"}, {"measurement": "CLL cells with one or two high amplitude spikes associated with prolonged basal Ca2+ elevation", "setting": "[5]; 90 min", "result": "28±5", "unit": "%"}, {"measurement": "CLL cells with prolonged Ca2+ oscillations without baseline Ca2+ elevation", "setting": "[5]; 90 min", "result": "6±2", "unit": "%"}, {"measurement": "CLL cells with relatively brief burst of Ca2+ oscillations associated with prolonged basal Ca2+ elevation", "setting": "[5]; 90 min", "result": "17±4", "unit": "%"}, {"measurement": "amplitude of Ca2+ peaks compared to TAT-IDP", "setting": "[5]; FIG. 10", "result": "significantly higher"}, {"measurement": "CLL cells with Ca2+ elevation", "setting": "[5]; recordings typically 90 min, FIG. 9", "result": "51 ±5", "unit": "%"}, {"measurement": "apoptosis induction in CLL cells", "setting": "[6]; 10 μM peptide, Figs. 12-15", "result": "substantial apoptosis"}, {"measurement": "sensitivity of CLL cells to apoptosis induction relative to normal peripheral blood lymphocytes", "setting": "[6]; propidium iodide exclusion by flow cytometry, FIG. 16", "result": "over 6 fold"}, {"measurement": "killing of multiple myeloma cells", "setting": "[7]", "result": "kills multiple myeloma cells"}]}
